In brackets after ≈: the same amount, converted by molar mass.
Tests used:
Bacillus subtilis = assay: Antimicrobial activity against Bacillus subtilis CGMCC1.1162 after 24 hrs by modified microdilution method; format: functional; settings: CGMCC1.1162, 24 h
Candida albicans = assay: Antimicrobial activity against Candida albicans CGMCC2.2086 after 48 hrs by modified microdilution method; format: functional; settings: CGMCC2.2086, 48 h
[1] = Cytotoxicity against human […] cells assessed as cell survival after 48 hrs by MTT assay; format: functional, cell-based
Staphylococcus aureus = assay: Antimicrobial activity against Staphylococcus aureus CGMCC1.1361 after 24 hrs by modified microdilution method; format: functional; settings: CGMCC1.1361, 24 h
Escherichia coli = assay: Antimicrobial activity against Escherichia coli CGMCC1.1571 after 24 hrs by modified microdilution method; format: functional; settings: CGMCC1.1571, 24 h
HepG2 = assay: Cytotoxicity against human HepG2 cells assessed as cell survival after 48 hrs by MTT assay; format: functional, cell-based; settings: HepG2, 48 h
Pseudomonas fluorescens = assay: Antimicrobial activity against Pseudomonas fluorescens CGMCC1.1828 after 24 hrs by modified microdilution method; format: functional; settings: CGMCC1.1828, 24 h
Aspergillus niger = assay: Antimicrobial activity against Aspergillus niger CGMCC3.316 after 48 hrs by modified microdilution method; format: functional; settings: CGMCC3.316, 48 h
Candida tropicalis = assay: Antimicrobial activity against Candida tropicalis CGMCC2.3967 after 48 hrs by modified microdilution method; format: functional; settings: CGMCC2.3967, 48 h

Compound | MIC (Bacillus subtilis) [µg/mL] | MIC (Candida albicans) [µg/mL] | IC50 [1] [µM] | MIC (Staphylococcus aureus) [µg/mL] | MIC (Escherichia coli) [µg/mL] | IC50 (HepG2) [µM] | MIC (Pseudomonas fluorescens) [µg/mL] | MIC (Aspergillus niger) [µg/mL] | MIC (Candida tropicalis) [µg/mL]
C[C@H]1[C@H](C)CC[C@]2(C(=O)NCCCN(C)C)CC[C@]3(C)C(=CC[C@@H]4[C@@]5(C)Cc6c([nH]c7ccc(F)cc67)C(C)(C)[C@@H]5CC[C@]43C)[C@H]12 | 3.9 (≈ 6.19 µM) | 31.2 (≈ 49.5 µM) | 4.6 | 7.8 (≈ 12.4 µM) | 7.8 (≈ 12.4 µM) | 6.03 | 7.8 (≈ 12.4 µM) | 31.2 (≈ 49.5 µM) | 31.2 (≈ 49.5 µM)
CC(=O)N1CCN(c2ccc(OCC3COC(Cn4ccnc4)(c4ccc(Cl)cc4Cl)O3)cc2)CC1 (stereo not drawn) [KETOCONAZOLE] |  | 3.9 (≈ 7.34 µM) |  |  |  |  |  | 7.8 (≈ 14.7 µM) | 3.9 (≈ 7.34 µM)
C[C@H]1[C@H](C)CC[C@]2(C(=O)NCCCN(C)C)CC[C@]3(C)C(=CC[C@@H]4[C@@]5(C)Cc6c([nH]c7ccc(Br)cc67)C(C)(C)[C@@H]5CC[C@]43C)[C@H]12 | 31.2 (≈ 45.2 µM) | > 100 | 6.8 | 31.2 (≈ 45.2 µM) | 31.2 (≈ 45.2 µM) | 5.65 | 15.6 (≈ 22.6 µM) | 62.5 (≈ 90.5 µM) | 62.5 (≈ 90.5 µM)
COC(=O)[C@]12CC[C@@H](C)[C@H](C)[C@H]1C1=CC[C@@H]3[C@@]4(C)Cc5c([nH]c6ccc(OC)cc56)C(C)(C)[C@@H]4CC[C@@]3(C)[C@]1(C)CC2 | 31.2 (≈ 54.6 µM) | > 100 | > 100 | 31.2 (≈ 54.6 µM) | 62.5 (≈ 109 µM) | > 100 | > 100 | > 100 | > 100
COc1cccc2c3c([nH]c12)C(C)(C)[C@@H]1CC[C@]2(C)[C@H](CC=C4[C@@H]5[C@@H](C)[C@H](C)CC[C@]5(C(=O)O)CC[C@]42C)[C@@]1(C)C3 | 62.5 (≈ 112 µM) | > 100 | > 100 | 62.5 (≈ 112 µM) | 62.5 (≈ 112 µM) | > 100 | 62.5 (≈ 112 µM) | > 100 | > 100
CCOc1ccc2[nH]c3c(c2c1)C[C@]1(C)[C@H]2CC=C4[C@@H]5[C@@H](C)[C@H](C)CC[C@]5(C(=O)NCCCN(C)C)CC[C@@]4(C)[C@]2(C)CC[C@H]1C3(C)C | 31.2 (≈ 47.6 µM) | > 100 | 4.88 | 62.5 (≈ 95.3 µM) | 31.2 (≈ 47.6 µM) | 6.25 | 62.5 (≈ 95.3 µM) | > 100 | > 100
COc1ccc2[nH]c3c(c2c1)C[C@]1(C)[C@H]2CC=C4[C@@H]5[C@@H](C)[C@H](C)CC[C@]5(C(=O)O)CC[C@@]4(C)[C@]2(C)CC[C@H]1C3(C)C | 31.2 (≈ 55.9 µM) | > 100 | 31.7 | 31.2 (≈ 55.9 µM) | 31.2 (≈ 55.9 µM) | 34.6 | 62.5 (≈ 112 µM) | > 100 | 62.5 (≈ 112 µM)
C[C@H]1[C@H](C)CC[C@]2(C(=O)O)CC[C@]3(C)C(=CC[C@@H]4[C@@]5(C)Cc6c([nH]c7ccc(Cl)cc67)C(C)(C)[C@@H]5CC[C@]43C)[C@H]12 | 31.2 (≈ 55.5 µM) | > 100 | 29.9 | 31.2 (≈ 55.5 µM) | 31.2 (≈ 55.5 µM) | 30.9 | 31.2 (≈ 55.5 µM) | > 100 | > 100
COC(=O)[C@]12CC[C@@H](C)[C@H](C)[C@H]1C1=CC[C@@H]3[C@@]4(C)Cc5c([nH]c6c(OC)cccc56)C(C)(C)[C@@H]4CC[C@@]3(C)[C@]1(C)CC2 | 31.2 (≈ 54.6 µM) | > 100 | > 100 | 31.2 (≈ 54.6 µM) | > 100 | > 100 | > 100 | > 100 | > 100
COc1cccc2c3c([nH]c12)C(C)(C)[C@@H]1CC[C@]2(C)[C@H](CC=C4[C@@H]5[C@@H](C)[C@H](C)CC[C@]5(C(=O)NCCCN(C)C)CC[C@]42C)[C@@]1(C)C3 | 31.2 (≈ 48.6 µM) | > 100 | 36.2 | 62.5 (≈ 97.4 µM) | 31.2 (≈ 48.6 µM) | 88.8 | 31.2 (≈ 48.6 µM) | > 100 | > 100
COC(=O)[C@]12CC[C@@H](C)[C@H](C)[C@H]1C1=CC[C@@H]3[C@@]4(C)Cc5c([nH]c6ccc(C)cc56)C(C)(C)[C@@H]4CC[C@@]3(C)[C@]1(C)CC2 | 31.2 (≈ 56.1 µM) | > 100 | > 100 | 31.2 (≈ 56.1 µM) | > 100 | > 100 | 62.5 (≈ 112 µM) | 31.2 (≈ 56.1 µM) | 62.5 (≈ 112 µM)
C[C@H]1[C@H](C)CC[C@]2(C(=O)O)CC[C@]3(C)C(=CC[C@@H]4[C@@]5(C)CCC(=O)C(C)(C)[C@@H]5CC[C@]43C)[C@H]12 [URSONIC ACID] | 31.2 (≈ 68.6 µM) | > 100 | > 100 | 62.5 (≈ 137 µM) | 31.2 (≈ 68.6 µM) | > 100 | 62.5 (≈ 137 µM) | > 100 | > 100
COc1ccc2[nH]c3c(c2c1)C[C@]1(C)[C@H]2CC=C4[C@@H]5[C@@H](C)[C@H](C)CC[C@]5(C(=O)NCCCN(C)C)CC[C@@]4(C)[C@]2(C)CC[C@H]1C3(C)C | 15.6 (≈ 24.3 µM) | 62.5 (≈ 97.4 µM) | 12.8 | 31.2 (≈ 48.6 µM) | 31.2 (≈ 48.6 µM) | 11.4 | 31.2 (≈ 48.6 µM) | 31.2 (≈ 48.6 µM) | 62.5 (≈ 97.4 µM)
COC(=O)[C@]12CC[C@@H](C)[C@H](C)[C@H]1C1=CC[C@@H]3[C@@]4(C)Cc5c([nH]c6ccc(F)cc56)C(C)(C)[C@@H]4CC[C@@]3(C)[C@]1(C)CC2 | 31.2 (≈ 55.7 µM) | 62.5 (≈ 112 µM) | > 100 | 15.6 (≈ 27.9 µM) | 31.2 (≈ 55.7 µM) | 97 | 31.2 (≈ 55.7 µM) | 62.5 (≈ 112 µM) | 62.5 (≈ 112 µM)
COC(=O)[C@]12CC[C@@H](C)[C@H](C)[C@H]1C1=CC[C@@H]3[C@@]4(C)Cc5c([nH]c6ccccc56)C(C)(C)[C@@H]4CC[C@@]3(C)[C@]1(C)CC2 | 31.2 (≈ 57.6 µM) | 62.5 (≈ 115 µM) | > 100 | 15.6 (≈ 28.8 µM) | 31.2 (≈ 57.6 µM) | > 100 | 62.5 (≈ 115 µM) | 62.5 (≈ 115 µM) | 62.5 (≈ 115 µM)
C[C@H]1[C@H](C)CC[C@]2(C(=O)NCCCN(C)C)CC[C@]3(C)C(=CC[C@@H]4[C@@]5(C)Cc6c([nH]c7ccc(Cl)cc67)C(C)(C)[C@@H]5CC[C@]43C)[C@H]12 | 15.6 (≈ 24.1 µM) | 62.5 (≈ 96.7 µM) | 2.78 | 7.8 (≈ 12.1 µM) | 15.6 (≈ 24.1 µM) | 4.02 | 31.2 (≈ 48.3 µM) | 31.2 (≈ 48.3 µM) | 62.5 (≈ 96.7 µM)
COC(=O)[C@]12CC[C@@H](C)[C@H](C)[C@H]1C1=CC[C@@H]3[C@@]4(C)Cc5c([nH]c6ccc(Br)cc56)C(C)(C)[C@@H]4CC[C@@]3(C)[C@]1(C)CC2 | 62.5 (≈ 101 µM) | > 100 | > 100 | 31.2 (≈ 50.3 µM) | > 100 | > 100 | 62.5 (≈ 101 µM) | > 100 | > 100
COc1cccc2c1C(=O)c1c(O)c3c(c(O)c1C2=O)C[C@@](O)(C(=O)CO)C[C@@H]3O[C@H]1C[C@H](N)[C@H](O)[C@H](C)O1 [DOXORUBICIN] |  |  | 0.62 |  |  | 0.77 |  |  | 
NCC[C@H](O)C(=O)N[C@@H]1C[C@H](N)[C@@H](O[C@H]2O[C@H](CN)[C@@H](O)[C@H](O)[C@H]2O)[C@H](O)[C@H]1O[C@H]1O[C@H](CO)[C@@H](O)[C@H](N)[C@H]1O [AMIKACIN] | 0.9 (≈ 1.54 µM) |  |  | 0.9 (≈ 1.54 µM) | 1.9 (≈ 3.24 µM) |  | 0.9 (≈ 1.54 µM) |  | 
